biological target: human PAD4 (hPAD4) (Homo sapiens (Human), UniProt Q9UM07); test: RFMS Human PAD4 Functional Assay 1; assay type: biochemical; details: RFMS assay 1; 5 nM hPAD4, 250 μM BAEE substrate, 50 μM calcium, 37° C.
In short: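 Citrullination product read by RapidFire triple-quad MRM against a modified-citrulline internal standard, after TCA stop and 30 min phenyl glyoxal step at 37 °C. Reaction: 250 μM BAEE, 5 nM human PAD4, 90 min at 37 °C, pH 7.5 HEPES buffer with 50 μM calcium and 5 μM TPEN, following 30 min compound–enzyme preincubation (max 50 μM).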

Sequence of human PAD4 (hPAD4) (Q9UM07 whole entry): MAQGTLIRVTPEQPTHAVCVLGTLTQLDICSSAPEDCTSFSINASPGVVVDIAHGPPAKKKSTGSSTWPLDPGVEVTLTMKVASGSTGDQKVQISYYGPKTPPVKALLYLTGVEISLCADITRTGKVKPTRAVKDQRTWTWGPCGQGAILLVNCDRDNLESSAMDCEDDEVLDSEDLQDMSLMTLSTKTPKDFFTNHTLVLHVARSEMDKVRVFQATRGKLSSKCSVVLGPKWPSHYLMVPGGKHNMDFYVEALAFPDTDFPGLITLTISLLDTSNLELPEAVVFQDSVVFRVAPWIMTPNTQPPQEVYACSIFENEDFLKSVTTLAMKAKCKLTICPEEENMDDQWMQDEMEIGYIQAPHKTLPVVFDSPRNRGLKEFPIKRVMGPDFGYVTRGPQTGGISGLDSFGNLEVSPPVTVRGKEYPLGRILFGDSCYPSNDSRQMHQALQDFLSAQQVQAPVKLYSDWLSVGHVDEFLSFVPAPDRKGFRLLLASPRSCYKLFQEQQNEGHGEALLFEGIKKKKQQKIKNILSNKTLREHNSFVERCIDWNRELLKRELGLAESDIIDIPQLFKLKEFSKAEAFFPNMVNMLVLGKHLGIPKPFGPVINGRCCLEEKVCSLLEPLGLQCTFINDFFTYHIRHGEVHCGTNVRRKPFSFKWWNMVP

Row | Compound | IC50
1 | Cc1c(-c2cc3ccc(-c4ccc(O)c(F)c4)nc3n2CC2CC2)nn2cc(C(=O)N3CC4CCC3[C@@H]4N)cnc12 (stereo partly drawn) [Example 111, ((7R)-7-Amino-2-azabicyclo[2.2.1]heptan-2-yl)(2-(1-(cyclopropylmethyl)-6-(3-fluoro-4-hydroxyphenyl)-1H-pyrrolo[2,3-b]pyridin-2-yl)-3-methylpyrazolo[1,5-a]pyrimidin-6-yl)methanone] | 15000 nM
2 | Cc1c(-c2cc3ccc(-c4ccc(C(N)=O)c(F)c4)nc3n2CC2CC2)nn2cc(C(=O)N3CC4CCC3[C@@H]4N)cnc12 (stereo partly drawn) [Example 112, 4-(2-(6-((7R)-7-Amino-2-azabicyclo[2.2.1]heptane-2-carbonyl)-3-methylpyrazolo[1,5-a]pyrimidin-2-yl)-1-(cyclopropylmethyl)-1H-pyrrolo[2,3-b]pyridin-6-yl)-2-fluorobenzamide] | 572 nM
3 | COc1nc(C(=O)N2CC3CCC2[C@@H]3N)cn2nc(-c3cc4ccccc4n3CC3CC3)c(C)c12 (stereo partly drawn) [Example 113, ((7R)-7-Amino-2-azabicyclo[2.2.1]heptan-2-yl)(2-(1-(cyclopropylmethyl)-1H-indol-2-yl)-4-methoxy-3-methylpyrazolo[1,5-a]pyrazin-6-yl)methanone] | 283 nM
4 | COc1nc(C(=O)N2C[C@H](N)C[C@@H](F)C2)cn2nc(-c3cc4ccccc4n3CC3CC3)c(C)c12 [Example 114, ((3R,5R)-3-Amino-5-fluoropiperidin-1-yl)(2-(1-(cyclopropylmethyl)-1H-indol-2-yl)-4-methoxy-3-methylpyrazolo[1,5-a]pyrazin-6-yl)methanone] | 3980 nM
5 | COc1nc(C(=O)N2CC3CCC2[C@@H]3N)cn2nc(-c3cc4cccnc4n3CC3CC3)c(C)c12 (stereo partly drawn) [Example 115, ((7R)-7-Amino-2-azabicyclo[2.2.1]heptan-2-yl)(2-(1-(cyclopropylmethyl)-1H-pyrrolo[2,3-b]pyridin-2-yl)-4-methoxy-3-methylpyrazolo[1,5-a]pyrazin-6-yl)methanone] | 3370 nM
6 | COc1nc(C(=O)N2CC3(CNC3)C2)cn2nc(-c3cc4cccnc4n3CC3CC3)c(C)c12 [Example 116, (2-(1-(Cyclopropylmethyl)-1H-pyrrolo[2,3-b]pyridin-2-yl)-4-methoxy-3-methylpyrazolo[1,5-a]pyrazin-6-yl)(2,6-diazaspiro[3.3]heptan-2-yl)methanone] | 22800 nM
7 | COc1nc(C(=O)NC[C@H](F)CN)cn2nc(-c3cc4cccnc4n3CC3CC3)c(C)c12 [Example 117, (R)-N-(3-Amino-2-fluoropropyl)-2-(1-(cyclopropylmethyl)-1H-pyrrolo[2,3-b]pyridin-2-yl)-4-methoxy-3-methylpyrazolo[1,5-a]pyrazine-6-carboxamide] | 15000 nM
8 | COc1cc(C(=O)N2CC3CCC2[C@@H]3N)cc2sc(-c3cc4ccccc4n3CC3CC3)c(C)c12 (stereo partly drawn) [Example 118, ((7R)-7-Amino-2-azabicyclo[2.2.1]heptan-2-yl)(2-(1-(cyclopropylmethyl)-1H-indol-2-yl)-4-methoxy-3-methylbenzo[b]thiophen-6-yl)methanone] | 157 nM
9 | COc1cc(C(=O)N2CC3CCC2[C@@H]3N)cc2sc(-c3cc4cccnc4n3CC3CC3)c(C)c12 (stereo partly drawn) [Example 119, ((7R)-7-Amino-2-azabicyclo[2.2.1]heptan-2-yl)(2-(1-(cyclopropylmethyl)-1H-pyrrolo[2,3-b]pyridin-2-yl)-4-methoxy-3-methylbenzo[b]thiophen-6-yl)methanone] | 84 nM
10 | COc1cc(C(=O)N2CC3CCC2[C@@H]3N)cc2sc(-c3cc4ccc(-c5ccc6c(c5)C(=O)NC6)cc4n3CC3CC3)c(C)c12 (stereo partly drawn) [Example 120, 6-(2-(6-((7R)-7-Amino-2-azabicyclo[2.2.1]heptane-2-carbonyl)-4-methoxy-3-methylbenzo[b]thiophen-2-yl)-1-(cyclopropylmethyl)-1H-indol-6-yl)isoindolin-1-one] | 250 nM
11 | COc1cc(C(=O)N2CC3CCC2[C@@H]3N)cc2sc(-c3cc4ccc(-c5cccc(O)c5F)cc4n3CC3CC3)c(C)c12 (stereo partly drawn) [Example 121, ((7R)-7-Amino-2-azabicyclo[2.2.1]heptan-2-yl)(2-(1-(cyclopropylmethyl)-6-(2-fluoro-3-hydroxyphenyl)-1H-indol-2-yl)-4-methoxy-3-methylbenzo[b]thiophen-6-yl)methanone] | 1500 nM
12 | COc1cc(C(=O)N2CC3CCC2[C@@H]3N)cc2sc(-c3cc4ccc(-c5ccn6c(C)nnc6c5)cc4n3CC3CC3)c(C)c12 (stereo partly drawn) [Example 122, ((7R)-7-Amino-2-azabicyclo[2.2.1]heptan-2-yl)(2-(1-(cyclopropylmethyl)-6-(3-methyl-[1,2,4]triazolo[4,3-a]pyridin-7-yl)-1H-indol-2-yl)-4-methoxy-3-methylbenzo[b]thiophen-6-yl)methanone] | 68 nM
13 | COc1cc(C(=O)N2CC3CCC2[C@@H]3N)cc2sc(-c3cc4ccc(-c5ccc(C(N)=O)c(Cl)c5)cc4n3CC3CC3)c(C)c12 (stereo partly drawn) [Example 125, 4-(2-(6-((7R)-7-Amino-2-azabicyclo[2.2.1]heptane-2-carbonyl)-4-methoxy-3-methylbenzo[b]thiophen-2-yl)-1-(cyclopropylmethyl)-1H-indol-6-yl)-2-chlorobenzamide] | 413 nM
14 | COc1cc(C(=O)N2CC3CCC2[C@@H]3N)cc2sc(-c3cc4ccc(-c5ccc6c(c5)CNC6=O)cc4n3CC3CC3)c(C)c12 (stereo partly drawn) [Example 126, 5-(2-(6-((7R)-7-Amino-2-azabicyclo[2.2.1]heptane-2-carbonyl)-4-methoxy-3-methylbenzo[b]thiophen-2-yl)-1-(cyclopropylmethyl)-1H-indol-6-yl)isoindolin-1-one] | 122 nM
15 | COc1cc(C(=O)N2CC3CCC2[C@@H]3N)cc2sc(-c3cc4ccc(C)cc4n3CC3CC3)c(C)c12 (stereo partly drawn) [Example 127, ((7R)-7-Amino-2-azabicyclo[2.2.1]heptan-2-yl)(2-(1-(cyclopropylmethyl)-6-methyl-1H-indol-2-yl)-4-methoxy-3-methylbenzo[b]thiophen-6-yl)methanone] | 98 nM
16 | COc1cc(C(=O)N2CC3CCC2[C@@H]3N)cc2sc(-c3cc4ccc(-c5cccc(F)c5C)cc4n3CC3CC3)c(C)c12 (stereo partly drawn) [Example 128, ((7R)-7-Amino-2-azabicyclo[2.2.1]heptan-2-yl)(2-(1-(cyclopropylmethyl)-6-(3-fluoro-2-methylphenyl)-1H-indol-2-yl)-4-methoxy-3-methylbenzo[b]thiophen-6-yl)methanone] | 4340 nM
17 | COc1cc(-c2ccc3cc(-c4sc5cc(C(=O)N6CC7CCC6[C@@H]7N)cc(OC)c5c4C)n(CC4CC4)c3c2)ccn1 (stereo partly drawn) [Example 129, ((7R)-7-Amino-2-azabicyclo[2.2.1]heptan-2-yl)(2-(1-(cyclopropylmethyl)-6-(2-methoxypyridin-4-yl)-1H-indol-2-yl)-4-methoxy-3-methylbenzo[b]thiophen-6-yl)methanone] | 376 nM
18 | COc1cc(C(=O)N2CC3CCC2[C@@H]3N)cc2sc(-c3cc4ccc(N5CCC(N)CC5)cc4n3CC3CC3)c(C)c12 (stereo partly drawn) [Example 130, ((7R)-7-Amino-2-azabicyclo[2.2.1]heptan-2-yl)(2-(6-(4-aminopiperidin-1-yl)-1-(cyclopropylmethyl)-1H-indol-2-yl)-4-methoxy-3-methylbenzo[b]thiophen-6-yl)methanone] | 38 nM
19 | COc1cc(C(=O)N2CC3CCC2[C@@H]3N)cc2sc(-c3cc4ccc(N5CCC(OC)CC5)cc4n3CC3CC3)c(C)c12 (stereo partly drawn) [Example 131, ((7R)-7-Amino-2-azabicyclo[2.2.1]heptan-2-yl)(2-(1-(cyclopropylmethyl)-6-(4-methoxypiperidin-1-yl)-1H-indol-2-yl)-4-methoxy-3-methylbenzo[b]thiophen-6-yl)methanone] | 146 nM
20 | COc1cc(C(=O)N2CC3CCC2[C@@H]3N)cc2sc(-c3cc4ccc(-c5ccc6c(c5)CNC6=O)nc4n3CC3CC3)c(C)c12 (stereo partly drawn) [Example 132, 5-(2-(6-((7R)-7-Amino-2-azabicyclo[2.2.1]heptane-2-carbonyl)-4-methoxy-3-methylbenzo-[b]thiophen-2-yl)-1-(cyclopropylmethyl)-1H-pyrrolo[2,3-b]pyridin-6-yl)isoindolin-1-one] | 476 nM
21 | COc1cc(C(=O)N2CC3CCC2[C@@H]3N)cc2sc(-c3cc4ccc(-c5ccc(C(N)=O)c(F)c5)nc4n3CC3CC3)c(C)c12 (stereo partly drawn) [Example 133, 4-(2-(6-((7R)-7-Amino-2-azabicyclo[2.2.1]heptane-2-carbonyl)-4-methoxy-3-methylbenzo[b]thiophen-2-yl)-1-(cyclopropylmethyl)-1H-pyrrolo[2,3-b]pyridin-6-yl)-2-fluorobenzamide] | 129 nM
22 | COc1cc(C(=O)N2CC3CCC2[C@@H]3N)cc2sc(-c3cc4ccc(-c5cccc(O)c5F)nc4n3CC3CC3)c(C)c12 (stereo partly drawn) [Example 134, ((7R)-7-Amino-2-azabicyclo[2.2.1]heptan-2-yl)(2-(1-(cyclopropylmethyl)-6-(2-fluoro-3-hydroxyphenyl)-1H-pyrrolo[2,3-b]pyridin-2-yl)-4-methoxy-3-methylbenzo[b]thiophen-6-yl)methanone] | 212 nM
23 | COc1cc(C(=O)N2CC3CCC2[C@@H]3N)cc2sc(-c3cc4ccc(-c5ccc6c(c5)C(=O)NC6)nc4n3CC3CC3)c(C)c12 (stereo partly drawn) [Example 135, 6-(2-(6-((7R)-7-Amino-2-azabicyclo[2.2.1]heptane-2-carbonyl)-4-methoxy-3-methylbenzo[b]thiophen-2-yl)-1-(cyclopropylmethyl)-1H-pyrrolo[2,3-b]pyridin-6-yl)isoindolin-1-one] | 233 nM
24 | COc1cc(C(=O)N2CC3CCC2[C@@H]3N)cc2sc(-c3cc4ccc(-c5ccc(O)c(F)c5)nc4n3CC3CC3)c(C)c12 (stereo partly drawn) [Example 136, ((7R)-7-Amino-2-azabicyclo[2.2.1]heptan-2-yl)(2-(1-(cyclopropylmethyl)-6-(3-fluoro-4-hydroxyphenyl)-1H-pyrrolo[2,3-b]pyridin-2-yl)-4-methoxy-3-methylbenzo[b]thiophen-6-yl)methanone] | 705 nM

From patent publication US12473304B2, “Heterocyclic PAD4 inhibitors” (BRISTOL-MYERS SQUIBB COMPANY, priority 2020, dated 2025)
